Read-outs that look alike come from different tables or passages of the source.
Target: ALPK1 (Homo sapiens (Human), UniProt Q96QP1)
Test: ALPK1 in vitro kinase assay (HTRF of TIFA phosphorylation)
Assay type: biochemical
Description: In embodiments, a compound of Formula I, or a subembodiment described herein, is an inhibitor of ALPK1 as measured, for example, in an in vitro kinase assay, or an assay designed to measure the activation of downstream targets of ALPK1 pathway activation, for example NFkB transcriptional activation and the secretion of proinflammatory cytokines and chemokines, such as IL-8, which is also referred to as CXCL-8. In general, the computer program XL fit was used for data analysis, including non-linear regression analysis. The half maximal inhibitory concentration (IC50) was used as the measure of a compound's effectiveness in the assays. IC50 values were determined using the following logistic equation Y=min+(max−min)/(1+(X/IC50^−hillslpoe), where Y is the value at the compound concentration, X. The concentration response curve fitting was conducted using GraphPad Prism version 6.00 software.
ALPK1 kinase activity was measured in an in vitro assay using ADP-Heptose as the ALPK1 ligand and activator of its kinase activity and TIFA protein as the ALPK1 phosphorylation substrate. Since phosphorylated TIFA proteins oligomerize, Homogeneous Time-Resolved Fluorescence (HTRF) was used to measure protein:protein interaction between HA-tagged TIFA proteins as an indicator of TIFA phosphorylation.
In brief, dose-response studies were performed with HEK293 cells cultured in Dulbecco's Modified Eagle Medium (DMEM) supplemented 10% fetal bovine serum (FBS, Hyclone™) containing antibiotics (pen/strep, G418) in 384-well assay plates. Each well contained 0.1 mg TIFA, ALPK1 (2 nM final concentration in reaction mixture) and kinase buffer (100 mM of HEPES pH 7.4, 4 mM DTT, 40 mM MgCl2, 20 mM of β-Glycerol phosphate disodium salt, 0.4 mM of Na3VO4, 0.16 mg/mL). Titrations of the test compounds were prepared in dimethylsulphoxide (DMSO). The reaction was initiated by addition of ATP and ADP-Heptose.
For HTRF, samples were incubated with a Tb cryptate-labeled anti-HA antibody for capturing HA-tagged proteins according to the manufacturer's instructions (PerkinElmer™, CisBio™) and the fluorescence signal was quantified (Tecan Infinite F NANO+). HTRF signals were calculated as the HTRF ratio (ratio of fluorescence measured at 665 nm and 620 nm)×104 (thereby using the signal at 620 nm as an internal standard).
IC50 values were determined using 3- or 4-parameter logistic equation using GraphPad Prism version 6.00. The reference compound, A027, was used as a positive control for each plate.

[1] = ALPK1 2 nM, TIFA substrate, ADP-Heptose activator, HTRF readout

ALPK1, sequence (Q96QP1 whole entry): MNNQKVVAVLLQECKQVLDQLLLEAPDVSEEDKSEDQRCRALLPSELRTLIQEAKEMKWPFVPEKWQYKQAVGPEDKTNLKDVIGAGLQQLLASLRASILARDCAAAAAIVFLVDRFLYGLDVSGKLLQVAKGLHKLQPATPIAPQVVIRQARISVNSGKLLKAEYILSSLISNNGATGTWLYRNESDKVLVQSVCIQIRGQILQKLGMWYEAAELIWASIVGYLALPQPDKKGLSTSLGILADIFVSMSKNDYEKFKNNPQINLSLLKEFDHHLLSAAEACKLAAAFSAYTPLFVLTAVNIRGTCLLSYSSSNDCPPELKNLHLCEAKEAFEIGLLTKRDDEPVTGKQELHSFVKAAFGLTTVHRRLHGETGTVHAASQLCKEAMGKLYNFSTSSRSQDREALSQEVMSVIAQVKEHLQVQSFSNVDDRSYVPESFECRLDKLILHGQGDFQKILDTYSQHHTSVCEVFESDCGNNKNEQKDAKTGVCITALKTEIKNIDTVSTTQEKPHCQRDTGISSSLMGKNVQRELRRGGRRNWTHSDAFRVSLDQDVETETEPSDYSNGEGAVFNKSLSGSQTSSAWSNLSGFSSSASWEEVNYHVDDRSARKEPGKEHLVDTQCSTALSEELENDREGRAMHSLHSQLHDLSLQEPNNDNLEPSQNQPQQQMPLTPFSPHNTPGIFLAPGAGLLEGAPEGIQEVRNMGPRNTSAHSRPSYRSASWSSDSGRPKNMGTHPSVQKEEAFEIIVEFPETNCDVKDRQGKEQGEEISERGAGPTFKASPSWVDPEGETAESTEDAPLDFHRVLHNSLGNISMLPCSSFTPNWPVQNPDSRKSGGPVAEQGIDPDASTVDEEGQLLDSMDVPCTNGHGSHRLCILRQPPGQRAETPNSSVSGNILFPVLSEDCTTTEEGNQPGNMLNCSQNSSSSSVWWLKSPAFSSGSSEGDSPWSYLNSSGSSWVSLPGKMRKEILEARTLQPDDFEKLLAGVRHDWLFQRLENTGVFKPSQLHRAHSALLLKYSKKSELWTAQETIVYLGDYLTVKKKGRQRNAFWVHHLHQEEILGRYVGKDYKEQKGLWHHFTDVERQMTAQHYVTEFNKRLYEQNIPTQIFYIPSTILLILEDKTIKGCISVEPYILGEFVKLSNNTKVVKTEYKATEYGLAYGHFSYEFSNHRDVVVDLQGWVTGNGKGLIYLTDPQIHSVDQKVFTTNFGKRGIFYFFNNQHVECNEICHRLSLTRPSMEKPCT

Compound: C#CC(C)(c1ccc(Br)cc1)c1csc(NC(=O)[C@H]2C[C@H](CO)C2)n1 (mixture of isomers) [Example D005, rac-(1r,3r)-N-(4-(2-(4-bromophenyl)but-3-yn-2-yl)thiazol-2-yl)-3-(hydroxymethyl)cyclobutanecarboxamide]
- IC50 [1]: 0.098 µM

Compound: C#CC(C)(c1ccc(Br)cc1)c1csc(NC(=O)[C@H]2C[C@@H](CO)C2)n1 (mixture of isomers) [Example D006, rac-(1s,3s)-N-(4-(2-(4-bromophenyl)but-3-yn-2-yl)thiazol-2-yl)-3-(hydroxymethyl)cyclobutanecarboxamide]
- IC50 [1]: 0.04 µM

Compound: [2H]C([2H])(O)CNC(=O)Nc1nc([C@](C)(C#C)c2ccc(Cl)cc2)cs1 (single isomer, unassigned) [Example A320, 1-[4-[1-(4-chlorophenyl)-1-methyl-prop-2-ynyl]thiazol-2-yl]-3-(2,2-dideuterio-2-hydroxy-ethyl)urea]
- IC50: 0.044 µM

Compound: C#C[C@@](C)(c1ccc(F)cc1)c1csc(NC(=O)c2ccc(N3CCNCC3CO)cc2)n1 (stereo in doubt) [Example B069, N-[4-[1-(4-fluorophenyl)-1-methyl-prop-2-ynyl]thiazol-2-yl]-4-[2-(hydroxymethyl)piperazin-1-yl]benzamide]
- IC50 [1]: 0.02 µM

Compound: C#C[C@](C)(c1ccc(F)cc1)c1csc(NC(=O)c2ccc(N3CCNCC3CO)cc2)n1 (stereo in doubt) [Example B070, N-[4-[1-(4-fluorophenyl)-1-methyl-prop-2-ynyl]thiazol-2-yl]-4-[2-(hydroxymethyl)piperazin-1-yl]benzamide]
- IC50 [1]: 0.169 µM

Compound: C#C[C@@](C)(c1ccc(F)cc1)c1csc(NC(=O)c2ccc(N3CCNCC3CO)cc2)n1 (stereo in doubt) [Example B071, N-[4-[1-(4-fluorophenyl)-1-methyl-prop-2-ynyl]thiazol-2-yl]-4-[2-(hydroxymethyl)piperazin-1-yl]benzamide]
- IC50 [1]: 0.06 µM

Compound: C#C[C@](C)(c1ccc(F)cc1)c1csc(NC(=O)c2ccc(N3CCNCC3CO)cc2)n1 (stereo in doubt) [Example B072, N-[4-[1-(4-fluorophenyl)-1-methyl-prop-2-ynyl]thiazol-2-yl]-4-[2-(hydroxymethyl)piperazin-1-yl]benzamide]
- IC50 [1]: 0.26 µM

Compound: C#C[C@@](C)(c1ccc(Cl)cc1)c1csc(NC(=O)c2ccc(N3CCNC(CO)C3)cc2)n1 (stereo in doubt) [Example B077, N-(4-(2-(4-chlorophenyl)but-3-yn-2-yl)thiazol-2-yl)-4-(3-(hydroxymethyl)piperazin-1-yl)benzamide]
- IC50 [1]: 0.09 µM

Compound: C#C[C@](C)(c1ccc(Cl)cc1)c1csc(NC(=O)c2c(F)cc(N3CCC(N)C3)cc2F)n1 (stereo in doubt) [Example B085, 4-(3-aminopyrrolidin-1-yl)-N-(4-(2-(4-chlorophenyl)but-3-yn-2-yl)thiazol-2-yl)-2,6-difluorobenzamide]
- IC50 [1]: 0.395 µM

Compound: C#C[C@@](C)(c1ccc(Cl)cc1)c1csc(NC(=O)c2c(F)cc(N3CCC(N)C3)cc2F)n1 (stereo in doubt) [Example B087, 4-(3-aminopyrrolidin-1-yl)-N-(4-(2-(4-chlorophenyl)but-3-yn-2-yl)thiazol-2-yl)-2,6-difluorobenzamide]
- IC50 [1]: 0.038 µM

Compound: C#C[C@@](C)(c1ccc(Cl)cc1)c1csc(NC(=O)c2c(F)cc(N3CCC(N)C3)cc2F)n1 (stereo in doubt) [Example B088, 4-(3-aminopyrrolidin-1-yl)-N-(4-(2-(4-chlorophenyl)but-3-yn-2-yl)thiazol-2-yl)-2,6-difluorobenzamide]
- IC50 [1]: 0.042 µM

Compound: C#C[C@](C)(c1ccc(F)cc1)c1csc(NC(=O)c2c(F)cc(N3CCC(N)C3)cc2F)n1 (stereo in doubt) [Example B089, 4-(3-aminopyrrolidin-1-yl)-2,6-difluoro-N-(4-(2-(4-fluorophenyl)but-3-yn-2-yl)thiazol-2-yl)benzamide]
- IC50 [1]: 0.681 µM

— US20240109853A1 (Shanghai Yao Yuan Biotechnology Co., Ltd., priority 2020, published 2024)
